Assay [1] concerns the target T1, Stat3 (Homo sapiens, UniProt P40763). Briefly: Stat3/pY-peptide binding assay (SPR, BIAcore). Conditions: recombinant Stat3 500 nM; immobilized EGFR Y1068 phosphododecapeptide; 25°C; read-out: SPR IC50, inhibition of Stat3 binding to pY peptide ligand. Here is the method:
A control (Stat3 with DMSO but without compound) was run at the beginning and the end of each cycle (40 sample injections) to ensure that the integrity of the sensor chip was maintained throughout the cycle run. The average of the two controls was normalized to 100% and used to evaluate the effect of each compound on Stat3 binding. Responses were normalized by dividing the value at 2 min by the response obtained in the absence of compounds at 2 min and multiplying by 100.

Assay [2] relates to IL-6-mediated Stat3 nuclear translocation (GFP-Stat3α). In words: HTFM nuclear translocation assay in MEF/GFP-Stat3α cells. The format is cell-based, murine. Conditions: Mus musculus, compound 1 hour, then IL-6 200 ng/ml and IL-6sR 250 ng/ml 30 min, read-out: HTFM IC50, inhibition of IL-6-mediated Stat3 nuclear translocation. The method, then:
Confocal and high-throughput fluorescence microscopy (HTFM) of MEF/GFP-Stat3α cells were performed as described. Briefly, for confocal fluorescence microscopy, cells were grown in 6-well plates containing a cover slip. For HTFM, cells were seeded into 96-well CC3 plates at a density of 5,000 cells/well using an automated plating system. Cells were cultured under standard conditions until 85–90% confluent. Cells were pre-treated with compound for 1 hour at 37°C then stimulated with IL-6 (200 ng/ml) and IL-6sR (250 ng/ml) for 30 minutes to provide optimal Stat3 activation and nuclear translocation in these cells, as described. Cells were fixed with 4% formaldehyde in PEM Buffer (80 mM Potassium PIPES, pH 6.8, 5 mM EGTA pH 7.0, 2 mM MgCl2) for 30 minutes at 4°C, quenched in 1 mg/ml of NaBH4 (Sigma) in PEM buffer and counterstained for 1 min in 4,6-diamidino-2-phenylindole (DAPI; Sigma; 1 mg/ml) in PEM buffer. Cover slips were examined by confocal fluorescent microscopy. Plates were analyzed by automated HTFM using the Cell Lab IC Image Cytometer (IC100) platform and Cytoshop Version 2.1 analysis software (Beckman Coulter). Nuclear translocation is quantified by using the fraction localized in the nucleus (FLIN) measurement. FLIN values were normalized by subtracting the FLIN for unstimulated cells then dividing this difference by the maximum difference (delta, Δ) in FLIN (FLIN in cells stimulated with IL-6/sIL-6R in the absence of compound minus FLIN of unstimulated cells). This ratio was multiplied by 100 to obtain the percentage of maximum difference in FLIN and was plotted, where indicated, as a function of the log compound concentration. The best-fitting curve and IC50 value were determined using 4-Parameter Logistic Model/Dose Response/XLfit 4.2, IDBS software.
Figure 4 Inhibition of cytoplasmic-to-nuclear translocation of Stat3 assessed by confocal and high-throughput fluorescence microscopy (HTFM). […] Coverslips were examined by confocal fluorescent microscopy using filters to detect GFP (column one), DAPI (column two) or both (merge; column three). In panel B, MEF-GFP-Stat3 cells were grown in 96-well plates with optical glass bottoms and pre-treated with the indicated compound at the indicated concentrations in quadruplicate for 1 hour then stimulated with IL-6 (200 ng/ml) and IL-6sR (250 ng/ml) for 30 minutes. Cells were fixed and the plates were examined by high-throughput microscopy to determine the fluorescence intensity in the nucleus (FLIN). The percent of maximum change (delta, Δ) in FLIN was calculated as described in the Methods and plotted as a function of the log of the compound concentration. […] Best-fit curves were determined using 4-Parameter Logistic Model/Dose Response/XLfit 4.2, IDBS software and were used to calculate the IC50 values (Table 2).

The test system of assay [3] is breast cancer cell lines tested. Briefly: Apoptosis assay, all breast cancer cell lines tested. Conditions: any of the breast cancer cell lines tested; data not shown. The format is cell-based, Human. The method, then:
Human breast carcinoma cell lines MDA-MB-468, MDA-MB-231, MBA-MD-435 and MCF7 were kindly provided by Dr. Powel H. Brown (Breast Cancer Center, Baylor College of Medicine). Breast cancer cell line, MDA-MB-453 was kindly provided by Dr. Shou Jiang (Breast Cancer Center, Baylor College of Medicine). All cell lines were grown in DMEM medium supplemented with 10% fetal bovine serum (FBS), 25,000 units penicillin G, 25,000 µg streptomycin, and 131.4 mg L-Glutamine and cultured in the incubator under the condition of 95% air, 5% CO2 at 37°C [33]. Cells were seeded at 2,500 cells/cm^2 into 12-well plates. At 80% confluency, cells were washed with PBS and supplemented with fresh medium containing compound or the topoisomerase I-inhibitor, camptothecin, at 0, 0.1, 0.3, 1, 3, 10, 30, 100, 300 µM. At 24 hours, treatment was terminated by removing the medium from each well. Cells were lysed with cell lysis buffer (600 µl for 30 minutes at 25°C). […] The percent maximum nucleosome level was calculated by dividing the nucleosome level by the maximum nucleosome level achieved in the assay and multiplying by 100. This value was plotted as a function of the log compound concentration and the best-fitting curve and EC50 value determined using 4-Parameter Logistic Model/Dose Response/XLfit 4.2, IDBS software.

In assay [4] the test system is IL-6-mediated phosphorylation of Stat3. In words: Immunoblot of IL-6-mediated Stat3 phosphorylation in HepG2 cells. The format is cell-based. Conditions: Homo sapiens, compound 60 min, then IL-6 30 ng/ml 30 min, read-out: pStat3 IC50, inhibition of IL-6-mediated Stat3 phosphorylation. Here is the method:
(§1) The human hepatocellular carcinoma cell line (HepG2) was grown in 6-well plates under standard conditions. Cells were pretreated with compounds (0, 1, 3, 10, 30, 100 and 300 µM) for 1 hour then stimulated under optimal conditions with either interleukin-6 (IL-6; 30 ng/ml for 30 min) to activate Stat3 or interferon gamma (IFN-γ; 30 ng/ml for 30 min) to activate Stat1 [28]. Cultures were then harvested and proteins extracted using high-salt buffer, as described. Briefly, extracts were mixed with 2× sodium dodecyl sulfate (SDS) sample buffer (125 mM Tris-HCL pH 6.8; 4% SDS; 20% glycerol; 10% 2-mercaptoethanol) at a 1∶1 ratio and heated for 5 minutes at 100°C. Proteins (20 µg) were separated by 7.5% SDS-PAGE and transferred to polyvinylidene fluoride (PVDF) membrane (Millipore, Waltham, MA) and immunoblotted. Prestained molecular weight markers (BioRad; Hercules, CA) were included in each gel. Membranes were probed serially with antibody against Stat1 pY701 or Stat3 pY705 followed by antibody against Stat1 or Stat3 (Transduction labs, Lexington, KY) then antibody against β–actin (Abcam, Cambridge, MA). Membranes were stripped between antibody probing using Restore™ Western Blot Stripping Buffer (Thermo Fisher Scientific Inc., Waltham, MA) per the manufacturer's instructions. Horseradish peroxidase-conjugated goat-anti-mouse IgG was used as the secondary antibody (Invitrogen Carlsbad, CA) and the membranes were developed with enhanced chemiluminescence (ECL) detection system (Amersham Life Sciences Inc.; Arlington Heights, IL.).
Figure 2 Effect of compounds on ligand-mediated Stat3 and Stat1 phosphorylation. […] Cells were then stimulated with IL-6 (30 ng/ml) for 30 min. Protein extracts of cells were separated by SDS-PAGE, blotted and developed serially with antibodies to pStat3, total Stat3 and β-actin. Blots were stripped between each antibody probing. Band intensities were quantified by densitometry. […] The best-fitting curve was determined using 4-Parameter Logistic Model/Dose Response/XLfit 4.2, IDBS software and was used to calculate the IC50 value (Table 1). […]
For orientation: Immunoblotting shows a protein as a band on a membrane.

Assay [5] concerns IFN-γ-mediated Stat1 phosphorylation. In words: Immunoblot of IFN-γ-mediated Stat1 phosphorylation in HepG2 cells. Conditions: compound 300 µM 1 hour, IFN-γ 30 ng/ml 30 min. The format is cell-based, human. The method, then: as §1
Figure 2 Effect of compounds on ligand-mediated Stat3 and Stat1 phosphorylation. […] Cells were then stimulated with IL-6 (30 ng/ml) for 30 min. Protein extracts of cells were separated by SDS-PAGE, blotted and developed serially with antibodies to pStat3, total Stat3 and β-actin. Blots were stripped between each antibody probing. Band intensities were quantified by densitometry. The value of each pStat3 band was divided by its corresponding total Stat3 band intensity; the results were normalized to the DMSO-treated control value. This value was plotted as a function of the log compound concentration. The best-fitting curve was determined using 4-Parameter Logistic Model/Dose Response/XLfit 4.2, IDBS software and was used to calculate the IC50 value (Table 1). Each panel is representative of 3 or more experiments. In panel G, HepG2 cells were pretreated with DMSO alone or DMSO containing each of the compounds at a concentration of 300 µM for 60 min. Cells were then stimulated with IFN-γ (30 ng/ml) for 30 min. Protein extracts of cells were separated by SDS-PAGE and immunoblotted serially with antibodies to pStat1, total Stat1 and β-actin. Blots were stripped between each immunoblotting. The results shown are representative of 2 or more experiments.

The subject of assay [6] is MDA-MB-231 xenografts. The arrangement: method as in PMID 17463090. Conditions: 5 mg/kg every 2–3 days; cited from earlier work.
Assay [7] deals with T1, Stat3. Also on record: method as in PMID 16220982. Conditions: fluorescence polarization; read-out: IC50 inhibition of Stat3 binding to pY-peptide; cited from earlier work. For orientation: Fluorescence polarisation rises when a labelled molecule tumbles more slowly, as on binding a larger partner.

Where two headings read alike, the source gives them in different places.

Usually IC50 stands for the concentration at which inhibition is half-maximal.

T1 sequence (P40763 whole entry, species assumed): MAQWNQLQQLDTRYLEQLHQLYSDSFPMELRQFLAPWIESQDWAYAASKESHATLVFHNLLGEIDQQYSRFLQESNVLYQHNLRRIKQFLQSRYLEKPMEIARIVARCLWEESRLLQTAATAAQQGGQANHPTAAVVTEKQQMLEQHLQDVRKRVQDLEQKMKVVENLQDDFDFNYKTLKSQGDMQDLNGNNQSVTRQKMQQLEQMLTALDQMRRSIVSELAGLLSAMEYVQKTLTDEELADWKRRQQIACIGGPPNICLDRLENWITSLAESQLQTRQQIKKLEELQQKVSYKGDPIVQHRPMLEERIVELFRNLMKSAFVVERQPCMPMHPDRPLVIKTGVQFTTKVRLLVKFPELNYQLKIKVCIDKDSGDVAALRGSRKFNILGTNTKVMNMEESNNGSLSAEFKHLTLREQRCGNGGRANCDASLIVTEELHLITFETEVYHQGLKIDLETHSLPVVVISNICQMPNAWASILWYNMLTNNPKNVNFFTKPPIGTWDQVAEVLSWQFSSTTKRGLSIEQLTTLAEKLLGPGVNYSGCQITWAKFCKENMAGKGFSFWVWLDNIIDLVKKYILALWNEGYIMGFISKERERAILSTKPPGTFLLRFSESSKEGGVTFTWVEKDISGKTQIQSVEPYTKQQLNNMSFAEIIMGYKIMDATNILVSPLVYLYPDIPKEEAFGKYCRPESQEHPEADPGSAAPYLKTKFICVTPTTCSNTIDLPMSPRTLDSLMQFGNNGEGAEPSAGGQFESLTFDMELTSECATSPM

`CCOc1cc(C=C2C(=O)c3ccccc3C2=O)cc(Cl)c1OCc1cccc(C(=O)O)c1` [Cpd3-2, 3-({2-chloro-4-[(1,3-dioxo-1,3-dihydro-2H-inden-2-ylidene)methyl]-6-ethoxyphenoxy}methyl)benzoic acid]: the IC50 was 256 µM in assay [1], 150 µM in assay [2] and 144 µM in assay [4]. For the same molecule, the “Apoptosis induction (in words)” value in assay [3] is listed as “neither Cpd3-2 nor Cpd3-7 induced apoptosis”. For the same molecule, the “Block of IFN-γ-stimulated Stat1 phosphorylation” value in assay [5] is reported as “did not”.
Regarding `COC(=O)Cc1c(C)c2ccc(OCc3ccc(C(=O)OC)cc3)c(C)c2oc1=O` [Cpd3-7, methyl 4-({[3-(2-methoxy-2-oxoethyl)-4,8-dimethyl-2-oxo-2H-chromen-7-yl]oxy}methyl)benzoate], in assay [3], the “Apoptosis induction (in words)” value was “neither Cpd3-2 nor Cpd3-7 induced apoptosis”. In addition, the “Block of IFN-γ-stimulated Stat1 phosphorylation” value in assay [5] was “did not”.
On to `Cc1ccc(S(=O)(=O)OCC(=O)Nc2ccc(C(=O)O)c(O)c2)cc1` [S3I-201], for which, in assay [6], the Xenograft growth result is reported as “inhibited growth”.
With “hydrocinnamoyl-Tyr(PO3H2)-Leu-cis-3,4-methanoPro-Gln-NHB”, in assay [7], the IC50 is 0.125 µM.

The values above are taken from PMC2653189 (PLoS ONE, 2009).
